In ChEMBL document CHEMBL4834458, “Diterpenoids with Aromatase Inhibitory Activity from the Rhizomes of Kaempferia elegans” (J Nat Prod, 2021):

Legend:
[1] = molecular target: T1, Aromatase (Homo sapiens, UniProt P11511); test: Inhibition of aromatase (unknown origin)
T1 sequence (P11511 whole entry): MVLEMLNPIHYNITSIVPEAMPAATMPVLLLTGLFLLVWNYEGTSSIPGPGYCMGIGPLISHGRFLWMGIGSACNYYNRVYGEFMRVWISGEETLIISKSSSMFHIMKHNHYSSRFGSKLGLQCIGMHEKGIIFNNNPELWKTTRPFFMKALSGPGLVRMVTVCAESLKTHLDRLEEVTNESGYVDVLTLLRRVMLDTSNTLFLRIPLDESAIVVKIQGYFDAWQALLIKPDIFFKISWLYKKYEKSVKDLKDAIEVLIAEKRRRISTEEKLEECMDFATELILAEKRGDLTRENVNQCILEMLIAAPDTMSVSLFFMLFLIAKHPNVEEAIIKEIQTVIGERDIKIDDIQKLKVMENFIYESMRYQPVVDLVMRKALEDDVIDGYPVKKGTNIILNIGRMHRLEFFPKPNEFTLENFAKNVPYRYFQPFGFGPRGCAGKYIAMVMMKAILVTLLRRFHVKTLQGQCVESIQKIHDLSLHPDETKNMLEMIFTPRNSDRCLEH

[2] = tested on: HuCCT-1; test: Cytotoxicity against human HuCC-A1 cells assessed as reduction in cell viability incubated for 48 hrs by MTT assay; assay type: functional, cell-based; conditions: HuCCT-1, 48 h
[3] = tested on: MRC5; test: Cytotoxicity against human MRC5 cells assessed as reduction in cell viability incubated for 48 hrs by MTT assay; assay type: cell-based; conditions: MRC5, 48 h
[4] = tested on: T47D; test: Cytotoxicity against human T47D cells assessed as reduction in cell viability incubated for 48 hrs by MTT assay; assay type: functional, cell-based
[5] = tested on: A549; test: Cytotoxicity against human A549 cells assessed as reduction in cell viability incubated for 48 hrs by MTT assay; assay type: functional, cell-based; conditions: A549, 48 h
[6] = tested on: HepG2; test: Cytotoxicity against human HepG2 cells assessed as reduction in cell viability incubated for 48 hrs by MTT assay; assay type: functional, cell-based; conditions: HepG2, 48 h
[7] = tested on: MDA-MB-231; test: Cytotoxicity against human MDA-MB-231 cells assessed as reduction in cell viability incubated for 48 hrs by MTT assay; assay type: functional, cell-based; conditions: MDA-MB-231, 48 h
[8] = tested on: HeLa; test: Cytotoxicity against human HeLa cells assessed as reduction in cell viability incubated for 48 hrs by MTT assay; assay type: functional, cell-based
[9] = tested on: K562; test: Cytotoxicity against human K562 cells assessed as reduction in cell viability incubated for 48 hrs by MTT assay; assay type: functional, cell-based; conditions: K562, 48 h
[10] = Cytotoxicity against human NCI-H69AR cells assessed as reduction in cell viability incubated for 48 hrs by MTT assay; assay type: functional, cell-based
[11] = molecular target: T1, Aromatase; test: Inhibition of aromatase (unknown origin) at 12.5 uM relative to control

inhibition at 12.5 µM [11] [%] | Structure (SMILES) | IC50 [1] [µM] | further results
– | C=C[C@]1(C)C=C2CC[C@H]3C(C)(C)CCC[C@]3(C)[C@H]2CC1 | 10.4 | –
– | CC(C)c1cc(O)c2c(c1)CC[C@H]1C(C)(C)CCC[C@]21C | 3.7 | IC50 [2]: 27.2 µM; IC50 [3]: 82.1 µM; IC50 [4]: 129 µM; IC50 [5]: 27.2 µM; IC50 [6]: 27.2 µM; IC50 [7]: 27.2 µM; IC50 [8]: 27.2 µM; IC50 [9]: 27.2 µM; IC50 [10]: 27.2 µM
31 | C=C[C@]1(C)C=C2[C@H](O)C[C@H]3C(C)(C)CCC[C@]3(C)[C@H]2CC1 | – | –
15 | CC(C)[C@@]1(O)CC[C@H]2C(CC[C@H]3C(C)(C)CCC[C@]23C)[C@@H]1O (stereo partly specified) | – | –
14 | C[C@@H]1OC(=O)C=C2[C@H](O)C[C@H]3C(C)(C)CCC[C@]3(C)[C@H]21 | – | –
– | C=C[C@@]1(C)CC(=O)C2=C(CC[C@H]3C(C)(C)CCC[C@]23C)C1 | 7.9 | –
36 | CC(C)C1=CC2=CC[C@H]3C(C)(C)CCC[C@]3(C)[C@H]2[C@H](O)C1 | – | –
– | CC(C)c1cc(O)c2c(c1)[C@H](O)C[C@H]1C(C)(C)CCC[C@]21C | 7.2 | –
– | C[C@@H]1O[C@]2(C(C)(C)O)C=C3CC[C@H]4C(C)(C)CCC[C@]4(C)[C@@]31OO2 | 10.7 | –
30 | CC(C)c1ccc2c(c1)[C@H](O)C[C@H]1C(C)(C)CCC[C@]21C | – | –
– | C[C@H]1C[C@]2(O)O[C@@]1(C)C=C1CC[C@H]3C(C)(C)CCC[C@]3(C)[C@H]12 | 11.8 | –
16 | CC(C)[C@@]1(O)CC[C@H]2C(CC[C@H]3C(C)(C)CCC[C@]23C)[C@H]1O (stereo partly specified) | – | –
44 | CC(C)c1ccc2c(c1)CC[C@H]1C(C)(C)CCC[C@]21C | – | –
21 | CC(C)[C@]1(O)C=C2[C@H](O)C[C@H]3C(C)(C)CCC[C@]3(C)[C@H]2C[C@H]1O | – | –
26 | CC(C)[C@@]12CC3=C([C@@H](CO1)O2)[C@@]1(C)CCCC(C)(C)[C@@H]1CC3 | – | –
42 | CC(C)C1=CC(=O)C2=C(CC[C@H]3C(C)(C)CCC[C@]23C)C1=O | – | –
25 | C[C@@H]1OC(=O)C=C2[C@H](O)C[C@H]3C(C)(C)CCC[C@]3(C)[C@]21O | – | –
